Values of other authors as cited in patent US9173848B2, “Solid pharmaceutical fixed dose compositions comprising irbesartan and amlodipine, their preparation and their therapeutic application” (SANOFI, priority 2009, dated 2015).

Experiments:
[1] = in vivo

Row | media of maximum solubility (parabolic pH solubility profile) | solubility in water | absolute bioavailability [1] | SMILES
1 | 0.1 N HCl and pH 7.5 phosphate buffer | insoluble | – | CCCCC1=NC2(CCCC2)C(=O)N1Cc1ccc(-c2ccccc2-c2nnn[nH]2)cc1 [Irbesartan, 2-n-butyl-4-spirocyclopentane-1-[(2′-(tetrazol-5-yl)biphenyl-4-yl)methyl]-2-imidazolin-5-one]
2 | – | slightly soluble | 64-90% | CCOC(=O)C1=C(COCCN)NC(C)=C(C(=O)OC)C1c1ccccc1Cl (stereo not shown) [Amlodipine besylate]
